From patent publication US20120122931A1, “INDOLE DERIVATIVE OR PHARMACEUTICALLY ACCEPTABLE SALT THEREOF” (KISSEI PHARMACEUTICAL CO., LTD., priority 2009, published 2012)
Values joined by “and” are separate entries in the source; they are usually repeats but may differ in a detail not shown here. Equal entries are not always repeated.

Molecular target: T1, rat EP1 receptor (Rattus norvegicus, UniProt P70597)
T1 construct: expressed in transfected cells; host or cells: COS-1 cells, transient transfection with Lipofectamine 2000
T1 sequence (P70597 1-405): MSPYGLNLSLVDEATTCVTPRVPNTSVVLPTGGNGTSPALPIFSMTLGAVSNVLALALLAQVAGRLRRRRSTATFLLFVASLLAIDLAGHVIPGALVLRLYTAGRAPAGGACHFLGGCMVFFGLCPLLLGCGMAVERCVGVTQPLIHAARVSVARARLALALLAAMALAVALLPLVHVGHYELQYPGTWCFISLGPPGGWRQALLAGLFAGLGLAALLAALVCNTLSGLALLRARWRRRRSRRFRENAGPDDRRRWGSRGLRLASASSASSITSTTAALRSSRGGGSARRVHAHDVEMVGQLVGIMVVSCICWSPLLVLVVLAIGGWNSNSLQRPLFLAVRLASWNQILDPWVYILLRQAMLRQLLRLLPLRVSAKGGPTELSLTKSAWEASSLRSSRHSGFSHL
Experiment: Test for confirmation of EP1 receptor antagonism: inhibition of prostaglandin E2-induced increase in intracellular calcium concentration (Method A or Method B)
Format: cell-based
Details: rat EP1 receptor-expressing cells, prostaglandin E2 10 nM
Method: (1) Preparation of Rat EP1 Expression vector
Using Rat Kidney BD Marathon-Ready cDNA (Nippon Becton Dickinson Company, Ltd.) as a template, a forward primer shown in SEQ ID NO. 1, and a reverse primer shown in SEQ ID NO. 2, a first run of PCR was carried out using KOD-Plus-Ver 2.0 (Toyobo Co., Ltd.). Further, using this amplification product as a template, a forward primer shown in SEQ ID NO. 3, and a reverse primer shown in SEQ ID NO. 4, a second run of PCR was carried out in the same manner. The amplification product obtained by the second run of PCR was incorporated into a vector (pcDNA3.1 D/V5-His-TOPO (registered trademark), Invitrogen Japan K. K.). By a conventional method, the vector containing this amplification product was introduced to E. coli (One Shot TOP10 Competent Cells, Invitrogen Corporation) to transform. This transformed E. coli was cultured in an LB agar medium for one day. After the culture, colonies were selected and cultured in an LB liquid medium containing 50 μg/mL of ampicillin. After the culture, the vector was purified using a QIAprep Spin Miniprep Kit (Qiagen K. K.). The base sequence of the insertion site of this vector (SEQ ID NO. 5) was compared with the rat EP1 base sequence (Ptger1) registered as an accession number NM_013100 in well-known database (NCBI), and as a result, they all matched except for a single base. Further, the amino acid sequence translated by the base sequence completely matched the amino acid sequence of the rat EP1 receptor registered as an NCBI accession number NP_037232. Therefore, it was confirmed that the cloned gene sequence was a base sequence of the rat EP1 receptor and the obtained amino acid sequence was that of the rat EP1 receptor. The pcDNA3.1 D/V5-His-TOPO (registered trademark) to which the nucleic acid shown in SEQ ID NO. 5 had been inserted was taken as a rat EP1-expressing vector.
(2) Preparation of Rat EP1 Receptor-Expressing Cells
COS-1 cells (Dainippon Sumitomo Pharma Co., Ltd.) were cultured until it reached confluence in an incubator at 37° C. under a 5% CO2 gas condition, using a D-MEM liquid medium (high glucose and L-glutamine contained, Invitrogen Corporation) to which a penicillin-streptomycin solution (Invitrogen Corporation, final concentration: 100 U/mL as benzylpenicillin; 100 μg/mL as streptomycin) as an antibiotic, MEM nonessential amino acids (Invitrogen Corporation, final Concentration: 0.1 mM), and fetal calf serum (Sanko Junyaku Co., Ltd., final concentration: 10%) were added.
(2-2) COS-1 Cell Subculture
The cells that had reached confluence were stripped with 0.05% trypsin/0.53 mM EDTA 4Na (Invitrogen Japan K. K.) and resuspended in the above liquid medium. The resuspended cells were diluted and cultured in the above liquid medium at a spread ratio from 1:4 to 1:8.
(2-3) Preparation of Cells for Introduction of Rat EP1-Expressing Vector
The cells that had reached confluence were stripped with 0.05% trypsin/0.53 mM EDTA.4Na, and resuspended in a D-MEM liquid medium (high glucose and L-glutamine contained, Invitrogen Corporation) to which an MEM nonessential amino acid (final concentration: 0.1 mM) and fetal calf serum (final concentration: 10%) were added. In each well of a Poly D-lysine-coated 96-well microplate (BD BioCoat (registered trademark), Nippon Becton Dickinson Company, Ltd.), this resuspended cell suspension culture was prepared to be 5×10^4 cells/well in 100 μL of the liquid medium, and seeded thereon. After seeding, the cells were cultured in an incubator at 37° C. under a 5% CO2 gas condition. At a point when the cells for introduction of a rat EP1-expressing vector were adhered (about 2 hours after seeding), introduction of the rat EP1-expressing vector was carried out in the following order.
(2-4) Introduction of Rat EP1-Expressing Vector
For introduction of the rat EP1-expressing vector, Lipofectamine 2000 (Invitrogen Japan K. K.) was used. […]

[1] = Method B (Calcium kit II Fluo 4, FDSS 7000)

Row | SMILES | IC50 [1] | IC50 (Method A (Fluo-4 NW, FlexStation))
1 | Cc1cc2c(Cc3cccc(C(=O)O)n3)c(-c3ccccc3)[nH]c2cc1C1CC1 [Example 16-100, 6-(6-cyclopropyl-5-methyl-2-phenyl-1H-indol-3-ylmethyl)pyridine-2-carboxylic acid] | 44 nM and 26 nM | 
2 | CCOc1cc2[nH]c(-c3ccsc3)c(Cc3cccc(C(=O)O)n3)c2cc1C [Example 16-93, 6-(6-ethoxy-5-methyl-2-thiophen-3-yl-1H-indol-3-ylmethyl)pyridine-2-carboxylic acid] | 46 nM | 
3 | COc1cc2[nH]c(C(C)(C)C)c(Cc3cccc(C(=O)O)n3)c2cc1Cl [Example 16-89, 6-(2-tert-butyl-5-chloro-6-methoxy-1H-indol-3-ylmethyl)pyridine-2-carboxylic acid] | 22 nM | 
4 | CCOc1ccc2c(Cc3cccc(C(=O)O)n3)c(-c3ccsc3)[nH]c2c1 [Example 16-61, 6-(6-ethoxy-2-thiophen-3-yl-1H-indol-3-ylmethyl)pyridine-2-carboxylic acid] | 43 nM | 
5 | COc1cc2[nH]c(C(C)(C)C)c(Cc3cccc(C(=O)O)n3)c2cc1C [Example 16-98, 6-(2-tert-butyl-6-methoxy-5-methyl-1H-indol-3-ylmethyl)pyridine-2-carboxylic acid] | 47 nM | 
6 | COc1ccc2c(Cc3nc(C(=O)O)cs3)c(-c3ccccc3)[nH]c2c1 [Example 11-37] | 50 nM | 
7 | COc1cc2[nH]c(-c3ccccc3)c(Cc3cccc(C(=O)O)n3)c2cc1C [Example 16-12, 6-(6-methoxy-5-methyl-2-phenyl-1H-indol-3-ylmethyl)pyridine-2-carboxylic acid] | 23 nM | 
8 | Cc1ccc2c(Cc3cccc(C(=O)O)n3)c(-c3ccc(F)cc3)[nH]c2c1 [Example 16-48, 6-[2-(4-fluorophenyl)-6-methyl-1H-indol-3-ylmethyl]pyridine-2-carboxylic acid] | 27 nM | 
9 | O=C(O)c1cccc(Cc2c(-c3ccccc3)[nH]c3cc(C(F)(F)F)c(F)cc23)n1 [Example 16-45] | 26 nM | 
10 | O=C(O)c1cccc(Cc2c(-c3ccc(F)cc3)[nH]c3cc(C4CC4)c(F)cc23)n1 [Example 16-74, 6-[6-cyclopropyl-5-fluoro-2-(4-fluorophenyl)-1H-indol-3-ylmethyl]pyridine-2-carboxylic acid] | 47 nM | 
11 | Cc1cc2c(Cc3cccc(C(=O)O)n3)c(-c3ccsc3)[nH]c2cc1C1CC1 [Example 16-102, 6-(6-cyclopropyl-5-methyl-2-thiophen-3-yl-1H-indol-3-ylmethyl)pyridine-2-carboxylic acid] | 49 nM | 
12 | COc1cc2[nH]c(-c3ccccc3)c(Cc3cccc(C(=O)O)n3)c2cc1F [Example 16-16, 6-(5-fluoro-6-methoxy-2-phenyl-1H-indol-3-ylmethyl)pyridine-2-carboxylic acid] | 25 nM | 
13 | Cc1ccc2c(Cc3cccc(C(=O)O)n3)c(-c3ccsc3)[nH]c2c1 [Example 16-21, 6-(6-methyl-2-thiophen-3-yl-1H-indol-3-ylmethyl)pyridine-2-carboxylic acid] | 24 nM | 
14 | O=C(O)c1cccc(Cc2c(-c3ccccc3)[nH]c3cc(Br)ccc23)n1 [Example 16-38] | 36 nM | 
15 | Cc1cc2c(Cc3cccc(C(=O)O)n3)c(-c3ccccc3)[nH]c2cc1Cl [Example 16-59, 6-(6-chloro-5-methyl-2-phenyl-1H-indol-3-ylmethyl)pyridine-2-carboxylic acid] | 19 nM | 
16 | COc1cc2c(Cc3cccc(C(=O)O)n3)c(-c3ccsc3)[nH]c2cc1C [Example 16-108, 6-(5-methoxy-6-methyl-2-thiophen-3-yl-1H-indol-3-ylmethyl)pyridine-2-carboxylic acid] | 19 nM | 
17 | CCc1ccc2c(Cc3cccc(C(=O)O)n3)c(-c3ccccc3)[nH]c2c1 [Example 4-27] |  | 28 nM
18 | COc1cc2[nH]c(C(C)(C)C)c(Cc3cccc(C(=O)O)n3)c2cc1F [Example 16-97, 6-(2-tert-butyl-5-fluoro-6-methoxy-1H-indol-3-ylmethyl)pyridine-2-carboxylic acid] | 32 nM | 
